Measured values: PubChem BioAssay AID248 (DTP/NCI, 2004)
Toxic doses and inconclusive results are not listed.

System: L1210 leukemia ip in BDF1 mice, survival T/C
Test: NCI In Vivo Anticancer Drug Screen. Data for tumor model L1210 Leukemia (intraperitoneal) in B6D2F1 (BDF1) mice
Conditions: endpoint: mean survival time, higher = longer survival
How it was run: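 Survival endpoint. Drug-treated group vs vehicle group, expressed as T divided by C. Tumor passaged by transplantation.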

[1] = dose: 100.0 mg/kg/injection, schedule: Q01DX001 (ip), vehicle: saline
[2] = dose: 200.0 mg/kg/injection, schedule: Q01DX001 (ip), vehicle: saline
[3] = dose: 400.0 mg/kg/injection, schedule: Q01DX001 (ip), vehicle: saline
[4] = dose: 100.0 mg/kg/injection, schedule: Q01DX009 (ip), vehicle: saline with Tween-80
[5] = dose: 400.0 mg/kg/injection, schedule: Q01DX009 (ip), vehicle: saline with Tween-80
[6] = dose: 100.0 mg/kg/injection, schedule: Q01DX009 (ip), vehicle: Klucel (hydroxypropylcellulose) (HPC)
[7] = dose: 100.0 mg/kg/injection, schedule: Q04DX003 (ip), vehicle: Klucel (hydroxypropylcellulose) (HPC)
[8] = dose: 200.0 mg/kg/injection, schedule: Q01DX009 (ip), vehicle: Klucel (hydroxypropylcellulose) (HPC)
[9] = dose: 200.0 mg/kg/injection, schedule: Q04DX003 (ip), vehicle: Klucel (hydroxypropylcellulose) (HPC)
[10] = dose: 400.0 mg/kg/injection, schedule: Q01DX009 (ip), vehicle: Klucel (hydroxypropylcellulose) (HPC)
[11] = dose: 400.0 mg/kg/injection, schedule: Q04DX003 (ip), vehicle: Klucel (hydroxypropylcellulose) (HPC)
[12] = dose: 50.0 mg/kg/injection, schedule: Q01DX009 (ip), vehicle: saline
[13] = dose: 50.0 mg/kg/injection, schedule: Q04DX003 (ip), vehicle: saline
[14] = dose: 100.0 mg/kg/injection, schedule: Q04DX003 (ip), vehicle: saline with Tween-80
[15] = dose: 200.0 mg/kg/injection, schedule: Q04DX003 (ip), vehicle: saline with Tween-80
[16] = dose: 400.0 mg/kg/injection, schedule: Q04DX003 (ip), vehicle: saline with Tween-80
[17] = dose: 100.0 mg/kg/injection, schedule: Q01DX009 (ip), vehicle: saline sonified
[18] = dose: 200.0 mg/kg/injection, schedule: Q01DX009 (ip), vehicle: saline sonified
[19] = dose: 100.0 mg/kg/injection, schedule: Q04DX002 (ip), vehicle: saline with Tween-80

Compound: O=C(/C=C\C(=O)Nc1ccc(C2=NCCN2)cc1)Nc1ccc(C2=NCCN2)cc1
- T/C (dose: 15.0 mg/kg/injection, schedule: Q01DX Z (ip), vehicle: saline): 124 % of control
- T/C (dose: 30.0 mg/kg/injection, schedule: Q01DX Z (ip), vehicle: saline): 177 % of control
- T/C (dose: 30.0 mg/kg/injection, schedule: Q01DX Z (oral), vehicle: saline): 103 % of control
- T/C (dose: 60.0 mg/kg/injection, schedule: Q01DX Z (ip), vehicle: saline): 170 % of control
- T/C (dose: 60.0 mg/kg/injection, schedule: Q01DX Z (oral), vehicle: saline): 114 % of control
- T/C (dose: 120.0 mg/kg/injection, schedule: Q01DX Z (oral), vehicle: saline): 103 % of control
- T/C (dose: 240.0 mg/kg/injection, schedule: Q01DX Z (oral), vehicle: saline): 102 % of control

Compound: CC1=NC(C)(C)CO1
- T/C [1]: 101 % of control
- T/C [2]: 97 % of control
- T/C [3]: 95 % of control

Compound: COc1ccc(Cl)cc1Cl
- T/C (dose: 75.0 mg/kg/injection, schedule: Q01DX009 (ip), vehicle: saline): 90 % of control
- T/C (dose: 75.0 mg/kg/injection, schedule: Q04DX003 (ip), vehicle: saline): 100 % of control
- T/C (dose: 150.0 mg/kg/injection, schedule: Q01DX009 (ip), vehicle: saline): 86 % of control
- T/C (dose: 150.0 mg/kg/injection, schedule: Q04DX003 (ip), vehicle: saline): 95 % of control
- T/C (dose: 300.0 mg/kg/injection, schedule: Q01DX009 (ip), vehicle: saline): 92 % of control
- T/C (dose: 300.0 mg/kg/injection, schedule: Q04DX003 (ip), vehicle: saline): 90 % of control

Compound: O=C(NCc1cnccn1)Oc1ccc([N+](=O)[O-])cc1
- T/C (dose: 50.0 mg/kg/injection, schedule: Q01DX009 (ip), vehicle: saline with Tween-80): 93 % of control
- T/C [4]: 103 % of control
- T/C [5]: 98 % of control

Compound: Cc1ccc([N+](=O)[O-])cc1NC(=O)Nc1ccc(S(N)(=O)=O)cc1
- T/C [6]: 97 % of control
- T/C [7]: 96 % of control
- T/C [8]: 98 % of control
- T/C [9]: 92 % of control
- T/C [10]: 103 % of control
- T/C [11]: 91 % of control

Compound: CC(=O)N1C(C)C1(c1ccccc1)[n+]1ccccc1 (configuration not stated)
- T/C (dose: 12.0 mg/kg/injection, schedule: Q04DX003 (ip), vehicle: saline): 98 % of control
- T/C (dose: 12.5 mg/kg/injection, schedule: Q01DX009 (ip), vehicle: saline): 101 % of control
- T/C (dose: 25.0 mg/kg/injection, schedule: Q01DX009 (ip), vehicle: saline): 92 % of control
- T/C (dose: 25.0 mg/kg/injection, schedule: Q04DX003 (ip), vehicle: saline): 88 % of control
- T/C [12]: 101 % of control
- T/C [13]: 104 % of control

Compound: CC(C)(C)OC(=O)C(C1NC2C(=O)OCC2(CO)S1)N1C(=O)c2ccccc2C1=O (configuration not stated)
- T/C [7]: 95 % of control
- T/C [9]: 92 % of control
- T/C [11]: 101 % of control

Compound: OC(c1ccc(Br)cc1)(c1cccs1)C1CC1 (configuration not stated)
- T/C [4]: 98 % of control
- T/C [14]: 103 % of control
- T/C (dose: 200.0 mg/kg/injection, schedule: Q01DX009 (ip), vehicle: saline with Tween-80): 98 % of control
- T/C [15]: 100 % of control
- T/C [5]: 98 % of control
- T/C [16]: 97 % of control

Compound: CCCCCCCC/C=C\CCCCCCCC(=O)OCCCCCCCCCCCCCCCCCC
- T/C [6]: 104 % of control
- T/C [17]: 105 % of control
- T/C [8]: 91 % of control
- T/C [18]: 93 % of control
- T/C [10]: 105 % of control
- T/C (dose: 400.0 mg/kg/injection, schedule: Q01DX009 (ip), vehicle: saline sonified): 98 % of control

Compound: COC(=O)/C=C(/Nc1cccc2ccccc12)C(=O)OC
- T/C (dose: 50.0 mg/kg/injection, schedule: Q01DX001 (ip), vehicle: Klucel (hydroxypropylcellulose) (HPC)): 102 % of control
- T/C (dose: 100.0 mg/kg/injection, schedule: Q01DX001 (ip), vehicle: Klucel (hydroxypropylcellulose) (HPC)): 96 % of control
- T/C (dose: 200.0 mg/kg/injection, schedule: Q01DX001 (ip), vehicle: Klucel (hydroxypropylcellulose) (HPC)): 114 % of control

Compound: N#CCc1cn(-c2ccccc2)nn1
- T/C (dose: 9.38 mg/kg/injection, schedule: Q01DX001 (ip), vehicle: other): 101 % of control
- T/C (dose: 18.75 mg/kg/injection, schedule: Q01DX001 (ip), vehicle: other): 96 % of control
- T/C (dose: 37.5 mg/kg/injection, schedule: Q01DX001 (ip), vehicle: other): 97 % of control

Compound: c1ccc(-c2oc3cc4c(cc3c2-c2ccc(OCCN3CCCC3)cc2)CCC4)cc1
- T/C [14]: 90 % of control

Compound: O=C1CCCc2ccc(Br)cc21
- T/C [14]: 99 % of control
- T/C [15]: 96 % of control
- T/C [16]: 99 % of control

Compound: CCSCN(C)C
- T/C [12]: 102 % of control
- T/C [13]: 97 % of control
- T/C [1]: 113 % of control
- T/C (dose: 100.0 mg/kg/injection, schedule: Q01DX009 (ip), vehicle: saline): 101 % of control
- T/C (dose: 100.0 mg/kg/injection, schedule: Q04DX003 (ip), vehicle: saline): 103 % of control
- T/C [2]: 97 % of control
- T/C (dose: 200.0 mg/kg/injection, schedule: Q04DX003 (ip), vehicle: saline): 105 % of control

Compound: CCOC(=O)c1c(/N=C/c2cc(Br)cc(Br)c2O)sc2c1CCCC2
- T/C [19]: 91 % of control
- T/C (dose: 200.0 mg/kg/injection, schedule: Q04DX002 (ip), vehicle: saline with Tween-80): 102 % of control
- T/C (dose: 400.0 mg/kg/injection, schedule: Q04DX002 (ip), vehicle: saline with Tween-80): 105 % of control

Compound: O=C(c1cccc([N+](=O)[O-])c1)c1sc2ccccc2c1O
- T/C (dose: 50.0 mg/kg/injection, schedule: Q04DX002 (ip), vehicle: Klucel (hydroxypropylcellulose) (HPC)): 90 % of control
- T/C (dose: 100.0 mg/kg/injection, schedule: Q04DX002 (ip), vehicle: Klucel (hydroxypropylcellulose) (HPC)): 93 % of control
- T/C (dose: 200.0 mg/kg/injection, schedule: Q04DX002 (ip), vehicle: Klucel (hydroxypropylcellulose) (HPC)): 88 % of control

Compound: O=C(CCCC(=O)N/N=C/c1cc([N+](=O)[O-])ccc1O)N/N=C\c1cc([N+](=O)[O-])ccc1O
- T/C (dose: 50.0 mg/kg/injection, schedule: Q01DX001 (ip), vehicle: saline): 96 % of control
- T/C [1]: 104 % of control
- T/C [2]: 102 % of control
- T/C [3]: 98 % of control

Compound: CC(=NC(c1ccccc1)c1ccccc1)N(C)C
- T/C [19]: 104 % of control

Compound: CSc1ccc(NC(=O)Nc2cccc(C)n2)cc1
- T/C [6]: 98 % of control
- T/C [7]: 95 % of control
- T/C [8]: 108 % of control
- T/C [9]: 93 % of control
- T/C [10]: 97 % of control
- T/C [11]: 97 % of control

Compound: CC(=O)OC1CC(C)(C)CC(OC(C)=O)C1(C)C (configuration not stated)
- T/C (dose: 75.0 mg/kg/injection, schedule: Q01DX001 (ip), vehicle: saline): 100 % of control
- T/C (dose: 150.0 mg/kg/injection, schedule: Q01DX001 (ip), vehicle: saline): 111 % of control

Compound: CCN(CC)c1cc(Cl)c(C=O)cc1[N+](=O)[O-]
- T/C [6]: 100 % of control
- T/C [7]: 94 % of control
- T/C [8]: 107 % of control
- T/C [9]: 96 % of control
- T/C [10]: 102 % of control
- T/C [11]: 102 % of control

Compound: CC12CCC(O)CC1CCC1C2CCC2(C)C(c3ccc(=O)oc3)CC3OC312 (configuration not stated)
- T/C (dose: 50.0 mg/kg/injection, schedule: Q01DX001 (sc), vehicle: steriod suspending solution): 105 % of control
- T/C (dose: 100.0 mg/kg/injection, schedule: Q01DX001 (sc), vehicle: steriod suspending solution): 105 % of control
- T/C (dose: 200.0 mg/kg/injection, schedule: Q01DX001 (sc), vehicle: steriod suspending solution): 96 % of control
- T/C (dose: 400.0 mg/kg/injection, schedule: Q01DX001 (sc), vehicle: steriod suspending solution): 100 % of control

Compound: CCCCCCCCCCCCOB(OCCCCCCCCCCCC)OCCCCCCCCCCCC
- T/C (dose: 50.0 mg/kg/injection, schedule: Q01DX001 (ip), vehicle: carboxymethylcellulose (CMC)): 96 % of control
- T/C (dose: 100.0 mg/kg/injection, schedule: Q01DX001 (ip), vehicle: carboxymethylcellulose (CMC)): 102 % of control
- T/C [4]: 98 % of control
- T/C (dose: 200.0 mg/kg/injection, schedule: Q01DX001 (ip), vehicle: carboxymethylcellulose (CMC)): 94 % of control
- T/C (dose: 400.0 mg/kg/injection, schedule: Q01DX001 (ip), vehicle: carboxymethylcellulose (CMC)): 94 % of control

Compound: C#CCOC(=O)c1ccc(C(=O)OCC#C)cc1
- T/C [17]: 106 % of control
- T/C [7]: 100 % of control
- T/C [18]: 96 % of control
- T/C [9]: 106 % of control
- T/C [11]: 90 % of control
